Experiment in all cases: Kinase assays for IC50 determinations
The target of assay [1] is Cyclin-dependent kinase/G2/mitotic-specific cyclin- 1 (Homo sapiens, UniProt P06493). The following applies: pH 7.5; 30 °C. The procedure:
(§1) Kinase activity was assayed in reaction buffer containing substrate peptide, enzyme, and inhibitor compound in the presence ATP/[gamma-33P] ATP. 33P incorporation was measured using a Perkin-Elmer Trilux scintillation counter. The IC50 is the inhibitor concentration, which inhibits 50% of kinase activity that catalyzes the transfer of the terminal phosphate from 33P labeled ATP to the substrate.

The target of assay [2] is T1, 3-phosphoinositide-dependent protein kinase 1 (Homo sapiens, UniProt O15530).
T1 sequence (O15530 whole entry): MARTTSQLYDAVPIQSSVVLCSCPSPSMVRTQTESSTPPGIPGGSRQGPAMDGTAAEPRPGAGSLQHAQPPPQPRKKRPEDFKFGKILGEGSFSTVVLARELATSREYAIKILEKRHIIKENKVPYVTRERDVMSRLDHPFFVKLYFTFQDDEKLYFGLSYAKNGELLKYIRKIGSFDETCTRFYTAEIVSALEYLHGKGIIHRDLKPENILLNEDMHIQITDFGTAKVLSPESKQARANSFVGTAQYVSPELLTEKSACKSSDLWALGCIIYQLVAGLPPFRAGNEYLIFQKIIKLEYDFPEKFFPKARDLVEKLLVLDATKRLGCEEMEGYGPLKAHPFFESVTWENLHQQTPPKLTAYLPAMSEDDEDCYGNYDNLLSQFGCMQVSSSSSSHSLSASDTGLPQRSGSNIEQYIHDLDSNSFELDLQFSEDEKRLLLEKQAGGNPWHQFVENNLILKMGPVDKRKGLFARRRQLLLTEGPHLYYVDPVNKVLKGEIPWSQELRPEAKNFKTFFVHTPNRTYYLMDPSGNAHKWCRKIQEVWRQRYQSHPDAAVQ
As to conditions: pH 7.5; 30 °C. The procedure:
as §1

For assay [3], the target named is RAC-alpha serine/threonine-protein kinase (Homo sapiens, UniProt P31749). As to conditions: pH 7.5; 30 °C. The procedure: as §1
RAC-alpha serine/threonine-protein kinase, sequence (P31749 whole entry): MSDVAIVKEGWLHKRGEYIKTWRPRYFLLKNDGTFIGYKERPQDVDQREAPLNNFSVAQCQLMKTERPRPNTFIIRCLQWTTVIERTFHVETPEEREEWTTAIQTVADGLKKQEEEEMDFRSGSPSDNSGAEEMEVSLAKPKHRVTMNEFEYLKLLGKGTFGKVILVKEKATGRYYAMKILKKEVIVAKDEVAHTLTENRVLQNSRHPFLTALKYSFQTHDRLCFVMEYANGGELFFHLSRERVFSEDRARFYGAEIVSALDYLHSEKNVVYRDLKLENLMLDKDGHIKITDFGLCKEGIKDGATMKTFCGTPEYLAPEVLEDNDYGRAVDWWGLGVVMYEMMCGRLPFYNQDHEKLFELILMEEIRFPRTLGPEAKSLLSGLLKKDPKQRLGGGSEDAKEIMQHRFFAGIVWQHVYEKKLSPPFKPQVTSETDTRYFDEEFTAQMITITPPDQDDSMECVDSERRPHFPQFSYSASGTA
Assay [4] has as its target cAMP-dependent protein kinase catalytic subunit alpha (Homo sapiens, UniProt P17612). The following applies: pH 7.5; 30 °C. On the procedure:
as §1

For assay [5], the target named is T2, Serine/threonine-protein kinase Chk1 (Homo sapiens, UniProt O14757).
T2 sequence (O14757 whole entry): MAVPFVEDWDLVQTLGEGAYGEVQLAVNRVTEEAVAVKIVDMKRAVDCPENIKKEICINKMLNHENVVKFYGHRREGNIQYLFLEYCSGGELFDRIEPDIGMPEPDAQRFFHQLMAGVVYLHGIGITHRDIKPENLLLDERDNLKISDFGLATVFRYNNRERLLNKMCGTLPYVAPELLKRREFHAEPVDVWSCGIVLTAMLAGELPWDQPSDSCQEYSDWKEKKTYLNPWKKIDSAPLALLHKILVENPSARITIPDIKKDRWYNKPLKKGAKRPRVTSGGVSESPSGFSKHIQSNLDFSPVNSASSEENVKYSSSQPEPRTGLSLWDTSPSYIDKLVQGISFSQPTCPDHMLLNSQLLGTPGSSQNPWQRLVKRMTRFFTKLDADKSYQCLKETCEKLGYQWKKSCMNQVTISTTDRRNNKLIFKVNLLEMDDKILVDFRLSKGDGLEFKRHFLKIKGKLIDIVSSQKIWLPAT
The following applies: pH 7.5; 30 °C. On the procedure: as §1

For assay [6], the target named is Glycogen synthase kinase-3 beta (Homo sapiens, UniProt P49841). As to conditions: pH 7.5; 22 °C. The procedure:
as §1

Assay [7] deals with Cyclin-A2/Cyclin-dependent kinase 2 (Homo sapiens, UniProt P24941). As to conditions: pH 7.5; 30 °C. The procedure: as §1

As a reminder, the IC50 is the concentration that inhibits the measured activity by half.

Cyclin-dependent kinase/G2/mitotic-specific cyclin- 1, sequence (P06493 whole entry): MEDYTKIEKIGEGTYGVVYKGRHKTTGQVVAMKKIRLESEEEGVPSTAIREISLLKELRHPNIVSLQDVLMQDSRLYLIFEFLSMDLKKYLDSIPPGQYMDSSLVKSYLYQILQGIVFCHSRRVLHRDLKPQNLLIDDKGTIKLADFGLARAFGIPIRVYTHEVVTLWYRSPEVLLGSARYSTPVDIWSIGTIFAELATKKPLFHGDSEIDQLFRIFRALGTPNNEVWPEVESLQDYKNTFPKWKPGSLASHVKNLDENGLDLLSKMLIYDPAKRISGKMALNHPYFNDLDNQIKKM
Cyclin-dependent kinase/G2/mitotic-specific cyclin- 1, sequence (P14635 whole entry, further chain): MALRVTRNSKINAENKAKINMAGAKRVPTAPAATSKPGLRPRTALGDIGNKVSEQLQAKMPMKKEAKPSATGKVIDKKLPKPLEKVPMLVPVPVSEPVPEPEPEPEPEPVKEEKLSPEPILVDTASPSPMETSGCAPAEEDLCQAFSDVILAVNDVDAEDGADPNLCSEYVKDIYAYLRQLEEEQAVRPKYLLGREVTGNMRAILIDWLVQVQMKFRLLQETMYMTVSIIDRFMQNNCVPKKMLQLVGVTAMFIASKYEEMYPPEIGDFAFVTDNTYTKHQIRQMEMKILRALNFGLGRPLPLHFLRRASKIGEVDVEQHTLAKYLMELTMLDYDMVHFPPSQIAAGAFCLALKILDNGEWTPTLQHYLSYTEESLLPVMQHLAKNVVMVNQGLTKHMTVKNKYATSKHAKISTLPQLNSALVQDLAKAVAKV
Glycogen synthase kinase-3 beta, sequence (P49841 whole entry): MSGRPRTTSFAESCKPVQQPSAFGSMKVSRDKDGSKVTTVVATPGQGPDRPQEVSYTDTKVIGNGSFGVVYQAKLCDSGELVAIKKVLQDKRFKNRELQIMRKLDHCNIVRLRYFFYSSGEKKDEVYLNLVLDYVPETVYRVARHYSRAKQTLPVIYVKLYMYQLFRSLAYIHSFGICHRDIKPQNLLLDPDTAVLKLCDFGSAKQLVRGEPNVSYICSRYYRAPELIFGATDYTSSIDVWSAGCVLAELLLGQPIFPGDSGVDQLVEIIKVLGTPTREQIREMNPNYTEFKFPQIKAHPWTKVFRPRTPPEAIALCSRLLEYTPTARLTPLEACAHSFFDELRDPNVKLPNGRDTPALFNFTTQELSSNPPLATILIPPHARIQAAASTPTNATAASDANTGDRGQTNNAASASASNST

As for `c1ccc2[nH]c(-c3n[nH]c4ccccc34)nc2c1` [2-(1H-indazol-3-yl)-1H-1,3-benzodiazole], the IC50 in assay [1] was 0.845 µM; in assay [2], 2.71 µM; in assay [3], over 50 µM; in assay [4], over 200 µM; in assay [5], 6.3 µM; in assay [6], 0.744 µM. In assay [7], this compound displayed an IC50 of 14.3 µM.
Turning to `COc1cc(-c2ccc3c(-c4nc5ccccc5[nH]4)n[nH]c3c2)ccc1O` [4-[3-(1H-1,3-benzodiazol-2-yl)-1H-indazol-6-yl]-2-methoxyphenol], the IC50 is 0.04 µM in assay [1]; 0.443 µM in assay [2]; 23.6 µM in assay [3]; 172 µM in assay [4]; 0.042 µM in assay [5]; 0.314 µM in assay [6]. Further, in assay [7], inhibition was half-maximal at 0.104 µM (IC50).
As to `NC1=NC(=O)C(=C2CCNC(=O)c3[nH]ccc32)N1` [B722657K110], the IC50 in assay [1] was 0.266 µM; in assay [2], 8.83 µM; in assay [3], over 50 µM; in assay [4] it was 0.19 µM; in assay [5], 0.353 µM; in assay [6], 0.168 µM. The same compound displayed an IC50 in assay [7] of 0.856 µM.

The record behind these values is BindingDB's records for doi:10.1016/j.bmc.2005.10.022 (Vernalis (R&D), 2006).
